Laboratory results published in patent US9283242B2, “Uses of dihydro bases” (priority 2013, dated 2016).
“Also recorded” adds a separate entry of the source.

Experiment: Variable temperature 1H NMR, tautomerism in DMF-d7
Type: physicochemical
Conditions: for tautomerism by Variable Temperature NMR: DMF-d7, 20 to −60° C.
Description: At 20° C., exchangeable protons on the base moiety are observed at 7.58 ppm and 4.14 ppm (FIG. 10). At −60° C., exchangeable protons on the base moiety are observed at 8.70 ppm, 8.08 ppm, and 4.68 ppm (FIG. 11). Protons with a chemical shift of 8.70, 8.08, and 7.58 ppm likely correspond to enolic, amido, or imino protons, while protons with a chemical shift of 4.68 and 4.14 ppm likely correspond to amino protons. The expected chemical shifts for enolic, amido, and imino protons are relatively close, and thus these species cannot be assigned at this stage. […] Only the existence of multiple tautomeric species would explain the presence of three exchangeable protons resonances. […] Based on their chemical structures, the keto-amino tautomer will pair with guanine and the keto-imino/enol-imino tautomers can pair with adenine.
All NMR experiments were performed on Varian 500 MHz NMR spectrometers. The deuterated solvent DMF-d7 was from Cambridge Isotope Laboratories, Andover, Mass., USA. 5-Aza-5,6-dihydro-2′-deoxycytidine (KP1212) nucleoside was from Berry & Associates Inc., Dexter, Mich., USA. The NMR sample was prepared by dissolving 10 mg of KP1212 nucleoside in 1.0 ml DMF-d7 (final concentration ˜44 mM). ^1H NMR spectra were reported in parts per million (ppm) and were referenced to the signals for DMF-d7 (8.03 ppm). ^13C NMR spectra were referenced to the signals for DMF-d7 (163.15 ppm).
FIG. 14A depicts the structures of all five possible tautomers (1 to 5) of KP1212, among which the three active protons on the nucleobase shift among the 02, N3, N4 and N5 positions. […] Before assigning the three active protons on the nucleobase moiety, all non-exchangeable protons in KP1212 and the two hydroxyl protons on the 3′ and 5′ positions were identified by carrying out 1D (^1H and ^13C) and 2D (COSY, HSQC, and HMBC) NMR experiments. The NMR signals of the three active protons in the base portion of KP1212 were studied at different temperatures. […] When the temperature was decreased to −50° C., the three broad peaks resolved into six distinct proton resonances (FIG. 14B, denoted as peaks i-vi), which could be assigned to imino (designated as e and n in FIGS. 14A to 14C), amido (designated as g and m), enolic (designated as c and d) or amino (designated as a, b, f, h, i, j, k, l, and o) protons.
At −50° C. six distinct proton resonances (FIG. 14B, i to vi) were observed, attributable to protons bound either to nitrogen or to oxygen atom (for only the base portion of the KP1212 molecule). Integration of the six broad peaks permitted estimation of the relative ratios of the five tautomeric species that exist in solution (FIG. 14A).
The NMR data also allowed the determination of the relative ratios of the tautomeric species present in the DMF solution at −50° C. (FIGS. 14B and 14C). Several peaks in the NMR spectrum partially overlapped (e.g., iv and v), so the raw data were reconstructed using a least squares fit algorithm (FIG. 16). The reconstructed peaks from the simulation were integrated, yielding an estimate of the relative amounts of each of the proton resonances in the spectrum. […] 2) Based on the peak assignments from part 1), a system of linear equations was set up using the relative amounts of tautomers as unknown variables (FIG. 14D). Each NMR peak provided a linear equation whereby the peak area should be equal to the sum of all tautomers (as relative amounts) containing protons that contribute to that peak. The solutions of these equations yielded the relative ratios of the tautomeric species present in DMF at −50° C. (FIG. 14D).

[1] = −50° C. in DMF, deconvoluted from NMR spectrum

Row | SMILES | tautomerism by Variable Temperature NMR | relative proportion of enol tautomer 1 [1] [%] | relative proportion of enol tautomer 2 [1] [%] | relative proportion of keto tautomers 3 to 5 collectively [1] [%] | tautomerism by Variable Temperature NMR (listed as deoxycytidine)
1 | NC1=NC(=O)N([C@H]2C[C@H](O)[C@@H](CO)O2)CN1 [KP1212, 5-aza-5,6-dihydro-2′-deoxycytidine] | shows multiple tautomerism; also recorded: different tautomeric forms | 51 | 38 | 11 | –
2 | Nc1ccn([C@H]2C[C@H](O)[C@@H](CO)O2)c(=O)n1 [dC, deoxycytidine] | does not show multiple tautomerism; also recorded: single tautomerism | – | – | – | only one tautomeric form; also recorded: no imino or enol tautomer exists
